# Patent publication EP4670722A1, “PROPHYLACTIC OR AMELIORATING AGENT FOR CELL AGING” (Kyowa Pharma Chemical Co., Ltd., priority 2023, dated 2024)
# Experiments:
# [1] = test system: human senescent dermal fibroblasts (NB1RGB) with a PDL of 50 or more; assay: Cell proliferation rate (MTT) of senescent dermal fibroblasts; assay type: cell-based; settings: 50 µg/mL to 200 µg/mL, 2 days, suppression increased as content increased, Fig. 3
# Experimental: Human normal dermal fibroblasts (NB1RGB) with a PDL of 30 or less and human senescent dermal fibroblasts (NB1RGB) with a PDL of 50 or more were each cultured using DMEM containing 10% FBS. The cultured cells were collected by trypsin treatment. The collected cells were seeded in a 96-well microplate at a concentration of 5.0 x 10^3 cells/well and cultured overnight. Thereafter, the cells were cultured for 2 days at 37°C in a medium for fibroblast proliferation (FBS-free) to which a test sample (sucrose or 2'-fucosyllactose) was added to a concentration of 50 µg/mL, 100 µg/mL,or 200 µg/mL. The medium was replaced with FBS-free DMEM medium, then 10 µL/well of 5 mg/mL 3-[4,5-dimethylthiazol-2-yl]-2,5-diphenyltetrazolium bromide (MTT) was added, and the cells were cultured at 37°C for 3 hours. […] After extraction, the absorbance of formazan (As, 492 nm) was measured with a microplate reader. […]
# Human normal dermal fibroblasts with a PDL of 30 or less and human senescent fibroblasts with a PDL of 50 or more were each cultured and the absorbance of formazan was measured in the same manner as in Example 2-1, except that no test sample was added. The obtained absorbance was designated as Ab, and the cell proliferation rate represented by the above formula (1) was determined for each case of PDL of 30 or less and PDL of 50 or more.
# [2] = test system: Human normal epidermal keratinocytes (HaCaT); assay: Cell viability (Cell Counting Kit-8) of tunicamycin-treated epidermal keratinocytes; assay type: cell-based; settings: tunicamycin 0.1 µg/mL, 50 µg/mL to 200 µg/mL, 24 hours, effect increased as content increased, Fig. 5
# Experimental: Human normal epidermal keratinocytes (HaCaT) were cultured using DMEM containing 10% FBS. The cultured cells were collected by trypsin treatment. The collected cells were seeded in a 96-well plate, and when they reached 100% confluence, tunicamycin, an agent that induces endoplasmic reticulum stress, was added at 0.1 µg/mL, and the cells were cultured for 24 hours. A group was also prepared in which FBS-free DMEM medium containing a test sample (2'-fucosyllactose) at 50 µg/mL, 100 µg/mL, or 200 µg/mL was added simultaneously with tunicamycin, and cultured for 24 hours. After completion of culture, the viability of human normal epidermal keratinocytes was evaluated using Cell Counting Kit-8 (manufactured by Dojindo Laboratories). The measurement wavelength (As) was set to 450 nm, and the reference wavelength was set to 620 nm.
# Human normal epidermal keratinocytes were cultured and the absorbance at a measurement wavelength of 450 nm was measured in the same manner as in Example 4-1, except that tunicamycin and the test sample were not added. The obtained absorbance was designated as Ab, and the cell viability represented by the above formula (1) was determined.
# [3] = test system: IL-1α; assay: IL-1α expression analysis (ELISA) under H2O2; assay type: cell-based, Human; settings: HaCaT, 20 µM H2O2, 50 µg/mL to 200 µg/mL, 24 hours; suppression increased as content increased; Fig. 10
# Experimental: Human normal epidermal keratinocytes (HaCaT) were cultured in DMEM containing 10% FBS. The cultured cells were collected by trypsin treatment. The collected cells were seeded in a 48-well plate at a cell density of 6 x 10^4 cells/well and cultured for 24 hours in a 37°C, 5% CO2 incubator. After culturing, the cells were precultured for 2 hours in FBS-free DMEM containing the test sample (2'-FL and sucrose) at 50 µg/mL, 100 µg/mL, or 200 µg/mL, or in FBS-free DMEM not containing the test sample. Thereafter, the medium was replaced with FBS-free DMEM containing the test sample at 50 µg/mL, 100 µg/mL, or 200 µg/mL and 20 µM H2O2, or with FBS-free DMEM not containing the test sample but containing 20 µM H2O2, respectively, and after culturing for an additional 24 hours in a 37°C, 5% CO2 incubator, the culture supernatant was collected. The culture supernatant was centrifuged, and the resulting supernatant was used as a sample. […]
# Since most IL-1α is released extracellularly, the IL-1α expression level was evaluated by measuring IL-1α in the supernatant medium by ELISA (AuthentiKine™ IL-1 alpha ELISA Kit, manufactured by Proteintech). […] The relative value of the IL-1α amount when each test sample was added was calculated, with the IL-1α amount in the control set to 1.
# [4] = test system: GLS1; assay: GLS1 expression analysis (Western blot) in HEK293; assay type: cell-based; settings: human embryonic kidney cells (HEK293), at least 200 µg/mL or more, 24 hours; effect increased from 200 to 1000 µg/mL; Fig. 12
# Experimental: Human embryonic kidney cells (HEK293) were cultured in DMEM containing 10% FBS. The cultured cells were collected by trypsin treatment. The collected cells were seeded in a 6-well plate, and when they reached 100% confluence, DMEM containing 2'-FL as a test sample at 50 µg/mL, 200 µg/mL, or 1000 µg/mL, and lactose at 50 µg/mL or 200 µg/mL was added, and cultured for 24 hours in a 37°C, 5% CO2 incubator. The culture supernatant was removed, the cells were washed twice with phosphate-buffered saline (PBS), and 0.20 mL of RIPA buffer (manufactured by Nacalai Tesque, Inc.) was added to extract total protein. Protein in each protein extract was quantified by the Bradford assay.
# Protein extracts were collected in the same manner as in [Example 10-1 A. Human embryonic kidney cells (HEK293)], except that DMEM not containing the test sample was used instead of DMEM containing the test sample, and protein in each protein extract was quantified by the Bradford assay.
# Western blot analysis was performed on each protein extract using an anti-GLS1 antibody and an anti-β-actin antibody. […] The intensity of color development was quantified using the open-source software 'ImageJ'. The relative value of the GLS1 amount relative to the β-actin amount when each test sample was added was calculated, with the GLS1 amount relative to the β-actin amount in the control set to 1. […]
smiles,measurement,setting,value
"C[C@@H]1O[C@@H](O[C@H]2[C@H](O[C@H]3[C@H](O)[C@@H](O)C(O)O[C@@H]3CO)O[C@H](CO)[C@H](O)[C@@H]2O)[C@@H](O)[C@H](O)[C@@H]1O (stereo partly shown) [2'-FL, 2'-fucosyllactose]",proliferation of senescent fibroblasts (cell proliferation rate),[1],suppressed the proliferation of senescent fibroblasts
same,endoplasmic reticulum stress (cell viability),[2],ameliorated endoplasmic reticulum stress
same,H2O2-induced promotion of IL-1α expression,[3],suppressed the H2O2-induced promotion of IL-1 α expression
same,GLS1 expression,[4],suppressed GLS1 expression
